Measurements taken from patent US12599560B2, “Lipids and lipid nanoparticle formulations” (Longuide Biopharma Corporation, priority 2023, dated 2026).

Assays:
Delta-S protein = assay: In vivo immunization with Delta Spike mRNA LNP, serum ELISA for specific antibody; design: species or system mice; details: serum after second administration; IM
Description: Lipid nanoparticles encapsulating the nucleic acid drugs were prepared according to step 2. The mRNA was replaced with Delta Spike full length mRNA (Shanghai Zhaowei Science and Technology Development Co., Ltd.) and then administered to the mice at a dose of 5 μg per mouse, and on the 14th day after the first immunization, the whole blood of the mice was collected by canthus sampling, and the drug administration was repeated for the second immunization. On the 14th day after the second immunization, the whole blood was collected from mice by canthus sampling. The whole blood was centrifuged at 5000 rcf for 5 mn, and the supernatant was centrifuged at 10000 rcf for 5 min to obtain the serum, which was aliquated into serial tubes and stored in the refrigerator at −20° C.
• 9.2.1 Coating: Add 100 μL of 0.2 μg/100 μL Delta-S protein (Novoprotein Scientific Inc.) dilution solution to each well, and leave it in the refrigerator at 4° C. overnight. • 9.2.2 Washing: Add 200 μL of PBST (PBS buffer solution containing 0.05% Tween-20 at pH 7.4) to each well and wash three times. • 9.2.3 Blocking: Add 200 μL of 5% (w/v) BSA-PBS solution (BSA bovine serum albumin, Bioss Biotechnology Co., Ltd.) to each well, and shake for 2 h at 50 rcf at room temperature using a shaker. • 9.2.4 Washing: Add 200 μL of PBST to each well to wash once. • 9.2.5 Adding samples: Add 100 μL of serum diluted 200 times with PBS (0.5 μL of serum) to each well (for the ELISA titer assay, serum diluted 200 times, 800 times, 3200 times, 12800 times, 51200 times, 204800 times), and shake at room temperature for 2 h at 50 rcf using a shaker. • 9.2.6 Washing: Add 200 μL of PBST into each well for three times. • 9.2.7 Adding detection antibody: Add 100 μL of HRP-labeled goat anti-mouse IgG detection antibody (0.1 μL of antibody master batch) (Sangon Biotech (Shanghai) Co., Ltd.) diluted 1000-fold into each well, and shake at 50 rcf for 1 h at room temperature using a shaker. • 9.2.8 Washing: Add 200 μL of PBST to each well and wash three times. • 9.2.9 Adding TMB (Beijing Solarbio Science & Technology Co., Ltd.): Add 50 μL of TMB mixture with the volume ratio of liquid A:liquid B of 1:1 to each well, and react for 5 mn (ELISA of blood sample I), 7 min 58 sec (ELISA of blood sample II), and react for about 5 min (ELISA titer of blood sample II). • 9.2.10 Adding phosphate (Aladdin Reagent (Shanghai) Co., Ltd.): add 50 μL of 1 mol/L phosphate per well to terminate the reaction. • 9.2.11 Detection: Use multi-function plate reader for detection. 9.3. Neutralization Antibody Levels Detected by Pseudovirus Neutralization Assay • 9.3.1 Cell seeding: 293T-ACE2 cells (Fubio (Suzhou) Biomedical Technology Co., Ltd.) were inoculated with 1×10^5 cells in each well of a 48-well plate at a concentration of 1×10^5 cells in 300 μL of DMEM medium (containing 10% heat-inactivated FBS without bispecific antibody), the 48-well plate was labeled with information such as “number, cell type, number of generations, medium type, date and name”, and then the cells were cultured in a cell culture incubator at 37° C. with 5% CO2 for 18 hours. • 9.3.2 Before the pseudovirus transfection operation, prepare an ice box, re-dissolve the serum to be used on ice, thaw on ice the virus from the −25° C. refrigerator. After thawing, the serum and pseudovirus were flicked homogenously and centrifuged with a palm centrifuge. • 9.3.3 Examine the neutralization antibody with serum diluted in different ratios: use complete culture medium to dilute the pseudovirus (Fubio (Suzhou) Biomedical Technology Co., Ltd.) and mouse serum respectively, mix them well, and then dilute them 40-fold, 100-fold, 250-fold and 625-fold according to the final concentration of the cells of incubation. […]

mice = assay: In vivo delivery of FLuc-mRNA lipid nanoparticle preparations in mice (IVIS imaging); design: In vivo IVIS / In vivo IVIS (liver) / In vivo IVIS (spleen): unit not given here
Description: 7. In Vivo Delivery of the Nucleic Acid Lipid Nanoparticle Preparations in Mice After the preparation was completed, the preparation was injected intramuscularly (mice rectus femoris muscle of the thigh) or intravenously (mice tail vein), with approximately 75 μL per mouse, for a total of 3 mice. After a certain time of injection, in vivo imaging (PerkinElmer, IVIS Lumina III) was performed. 10-15 minutes before imaging, 200 μL of 15 mg/mL D-Luciferin working solution was injected intraperitoneally, and the imaging analysis was performed using an in vivo imager.

[1] = Particle size and PDI by dynamic light scattering; format: physicochemical
Description: The 7.5 μL nucleic acid lipid nanoparticle solution (containing approximately 0.04 mg/mL mRNA) was taken and added with 200 μL ultrapure water, mixed by gentle blowing using a pipette tip, and the particle size of the nanopreparation was detected by dynamic lightscattering (DLS) using a Malvern Dynamic Light Scattering Instrument (Malvern Instruments Ltd., ZEN3700, UK). 27.5 μL nucleic acid lipid nanoparticle solution (containing about 0.04 mg/mL mRNA) was taken and added with 200 μL ultrapure water. A pipette tip was used to gently blow the sample and mix well. The particle size of the nanopreparation was detected by Malvern Dynamic Light Scattering Instrument (Malvern Instruments Ltd., ZEN3700, UK). After the detection, the sample was recovered to an EP tube, and 600 μL of ultrapure water was added, gently blown with a pipette tip, and the potential of the nanopreparation was measured by a Malvern particle size meter.

[2] = Table 4, molar ratio 1.40:11.15:38.95:48.50, N/P 36, IV formulation
[3] = Table 4, molar ratio 2.00:4.00:59.00:35.00, N/P 35, IM formulation
[4] = Table 4, molar ratio 1.40:11.15:38.95:48.50, N/P 32, IV formulation
[5] = Table 4, molar ratio 1.40:11.15:38.95:48.50, N/P 28, IM formulation
[6] = Table 4, molar ratio 2.50:11.50:51.00:35.00, N/P 32, IV formulation
[7] = Table 4, molar ratio 1.40:11.15:38.95:48.50, N/P 40, IM formulation
[8] = Table 4, molar ratio 1.50:16.00:34.00:48.50, N/P 55, IV formulation

Row | Structure (SMILES) | PDI ([1]; Table 4) | Particle size (nm) ([1]; Table 4) | In vivo IVIS (mice; Table 4, IM) | In vivo IVIS (mice; Table 4, IV) | other results
1 | CCCCCCC(CCCCCC)C(=O)OCCCCOC(=O)C(O)CN1CCN(CCN(CC(O)C(=O)OCCCCOC(=O)C(CCCCCC)CCCCCC)CC(O)C(=O)OCCCCOC(=O)C(CCCCCC)CCCCCC)CC1 (stereo not drawn) [Compound L0186] | – | – | – | – | OD 450 nm-630 nm (Delta-S protein): 1.70; In vivo IVIS (mice; Table 2, IM, whole body scan): 1.58 × 10^8; In vivo IVIS (liver) (mice; Table 2, IV, liver): 5.61 × 10^7; In vivo IVIS (spleen) (mice; Table 2, IV, spleen): 2.65 × 10^7; In vivo IVIS (mice; Table 2, IV, whole body scan, molar ratio DMG-PEG2000:DSPC:Chol:Lipid and N/P): 2.77 × 10^8; in vivo delivery efficiency as compared to the benchmark compound SM102 (mice; certain formulations, Table 2): superior in vivo delivery efficiency; Particle size (nm) ([1]; Table 2, LNP formulation with mRNA): 89.99 ± 0.58 nm; PDI ([1]; Table 2, polydispersity value): 0.12 ± 0.00
2 | CCCCCCCCCCNC(=O)C(O)CN[C@H]1CC[C@H](N(CC(O)C(=O)NCCCCCCCCCC)CC(O)C(=O)NCCCCCCCCCC)CC1 (stereo partly drawn) [Compound L0219] | 0.09 ± 0.01 | 102.47 ± 0.96 | 2.79 × 10^6 | 8.48 × 10^7 | –
3 | CCCCCCOC(C)OCCCCCCOC(=O)C(O)CN(CCCN1CCN(CCCN(CC(O)C(=O)OCCCCCCOC(C)OCCCCCC)CC(O)C(=O)OCCCCCCOC(C)OCCCCCC)CC1)CC(O)C(=O)OCCCCCCOC(C)OCCCCCC (stereo not drawn) [Compound L0224] | – | – | 3.31 × 10^8 | 4.84 × 10^9 | PDI [1, 2]: 0.07 ± 0.02; Particle size (nm) [1, 2]: 108.57 ± 1.60 nm; PDI [1, 3]: 0.14 ± 0.01; Particle size (nm) [1, 3]: 84.67 ± 0.79 nm
4 | CCCCCCC(CCCCCC)C(=O)OCCCCCCOC(=O)C(O)CN(CCCN1CCN(CCCN(CC(O)C(=O)OCCCCCCOC(=O)C(CCCCCC)CCCCCC)CC(O)C(=O)OCCCCCCOC(=O)C(CCCCCC)CCCCCC)CC1)CC(O)C(=O)OCCCCCCOC(=O)C(CCCCCC)CCCCCC (stereo not drawn) [Compound L0227] | – | – | 3.49 × 10^8 | 2.49 × 10^8 | PDI [1, 4]: 0.15 ± 0.01; Particle size (nm) [1, 4]: 113.50 ± 0.96 nm; PDI [1, 3]: 0.13 ± 0.01; Particle size (nm) [1, 3]: 112.03 ± 0.65 nm
5 | CCCCCCCCCCCCCCOC(=O)C(O)CN(CCCN1CCN(CCCN(CC(O)C(=O)OCCCCCCCCCCCCCC)CC(O)C(=O)OCCCCCCCCCCCCCC)CC1)CC(O)C(=O)OCCCCCCCCCCCCCC (stereo not drawn) [Compound L0228] | – | – | 8.22 × 10^6 | 9.28 × 10^9 | PDI [1, 5]: 0.18 ± 0.01; Particle size (nm) [1, 5]: 140.50 ± 1.21 nm; PDI [1, 6]: 0.13 ± 0.01; Particle size (nm) [1, 6]: 120.07 ± 0.60 nm
6 | CCCCCCCC/C=C\CCCCCCCCNC(=O)C(O)CN(CCCN1CCN(CCCN(CC(O)C(=O)NCCCCCCCC/C=C\CCCCCCCC)CC(O)C(=O)NCCCCCCCC/C=C\CCCCCCCC)CC1)CC(O)C(=O)NCCCCCCCC/C=C\CCCCCCCC (stereo not drawn) [Compound L0229] | 0.10 ± 0.02 | 179.07 ± 0.38 | 5.61 × 10^6 | 2.46 × 10^8 | –
7 | CCCCCCCCCCCCOC(=O)CCN(CCC(=O)OCCCCCCCCCCCC)CCN(CCC(=O)OCCCCCCCCCCCC)CCN1CCN(CCN(CCC(=O)OCCCCCCCCCCCC)CCC(=O)OCCCCCCCCCCCC)CC1 [L0199-Control, reference compound] | – | – | 5.84 × 10^6 | 2.12 × 10^7 | delivery efficiency, times lower than the hydroxy compound (L0191 or L0199) (mice; IM administration): slightly lower; delivery efficiency, times lower than the hydroxy compound (L0191 or L0199) (mice; IV administration): about 44 times; PDI [1, 7]: 0.17 ± 0.02; Particle size (nm) [1, 7]: 133.43 ± 1.86 nm; PDI [1, 8]: 0.16 ± 0.03; Particle size (nm) [1, 8]: 144.33 ± 0.31 nm

The next lines start with results.

Row | PDI ([1]; Table 4) | Particle size (nm) ([1]; Table 4) | Structure (SMILES) | In vivo IVIS (mice; Table 4, IM) | In vivo IVIS (mice; Table 4, IV) | other results
8 | 0.08 ± 0.02 | 106.97 ± 0.21 | CCCCCCOC(C)OCCCCCCOC(=O)C(O)CN1CCN(CCN(CC(O)C(=O)OCCCCCCOC(C)OCCCCCC)CC(O)C(=O)OCCCCCCOC(C)OCCCCCC)CC1 (stereo not drawn) [Compound L0220] | 1.32 × 10^6 | 1.82 × 10^8 | –
9 | 0.07 ± 0.02 | 140.97 ± 1.48 | CC/C=C\CCOCOCCCCCCOC(=O)C(O)CN1CCN(CCN(CC(O)C(=O)OCCCCCCOCOCC/C=C\CC)CC(O)C(=O)OCCCCCCOCOCC/C=C\CC)CC1 (stereo not drawn) [Compound L0221] | 1.85 × 10^5 | 3.94 × 10^5 | –
10 | 0.05 ± 0.01 | 133.83 ± 0.72 | CCCC/C=C\CCOCOCCCCOC(=O)C(O)CN1CCN(CCN(CC(O)C(=O)OCCCCOCOCC/C=C\CCCC)CC(O)C(=O)OCCCCOCOCC/C=C\CCCC)CC1 (stereo not drawn) [Compound L0222] | 4.38 × 10^5 | 7.94 × 10^6 | –
11 | 0.13 ± 0.03 | 98.88 ± 1.32 | CCCCCCCC/C=C\CCCCCCCCNC(=O)C(O)CN1CCN(CCN(CC(O)C(=O)NCCCCCCCC/C=C\CCCCCCCC)CC(O)C(=O)NCCCCCCCC/C=C\CCCCCCCC)CC1 (stereo not drawn) [Compound L0223] | 1.83 × 10^6 | 1.42 × 10^8 | –
12 | 0.10 ± 0.01 | 117.87 ± 1.55 | CC/C=C\CCOCOCCCCCCOC(=O)C(O)CN(CCCN1CCN(CCCN(CC(O)C(=O)OCCCCCCOCOCC/C=C\CC)CC(O)C(=O)OCCCCCCOCOCC/C=C\CC)CC1)CC(O)C(=O)OCCCCCCOCOCC/C=C\CC (stereo not drawn) [Compound L0225] | 3.13 × 10^8 | 2.15 × 10^9 | –
13 | 0.09 ± 0.03 | 115.53 ± 1.04 | CCCC/C=C\CCOCOCCCCOC(=O)C(O)CN(CCCN1CCN(CCCN(CC(O)C(=O)OCCCCOCOCC/C=C\CCCC)CC(O)C(=O)OCCCCOCOCC/C=C\CCCC)CC1)CC(O)C(=O)OCCCCOCOCC/C=C\CCCC (stereo not drawn) [Compound L0226] | 1.41 × 10^8 | 1.24 × 10^9 | –
